Data published in PubChem BioAssay AID1645848.
≈ marks a conversion by molar mass, not a printed value.

Settings: buffer; pH 7.4; 6.0 h; 150.0 µM

Row | solubility kinetic | Structure (SMILES)
1 | 36 µg/mL (≈ 111 µM) | CCc1ccccc1OC[C@@H](O)CN[C@H]1CCCc2ccccc21
2 | < 1 µg/mL | Cn1c2ccccc2c(=O)c2c(=O)n(-c3ccccc3)c(C3CCCCC3)nc21
3 | 47.2 µg/mL (≈ 100 µM) | O=S(=O)(Nc1ccc(C2CCNCC2)cc1)c1ccc(NCc2cccc(Cl)c2O)cc1
4 | 3.63 µg/mL (≈ 8.57 µM) | O=C(Nc1ccccc1F)c1nc(S(=O)(=O)Cc2ccccc2F)ncc1Cl
5 | < 1 µg/mL | O=C(Nc1cc(C(F)(F)F)ccc1N1CCOCC1)c1n[nH]c(=O)c2ccccc12
6 | > 69 µg/mL | COc1ccc(C2=Nc3ccc(Br)cc3C(c3ccccc3)N2CC(=O)NN)cc1 (centres undefined)
7 | > 66 µg/mL | CN1CCN(CCCN2c3ccccc3Sc3ccc(S(=O)(=O)N(C)C)cc32)CC1.CS(=O)(=O)O.CS(=O)(=O)O
8 | > 57 µg/mL | C[S+](=O)([O-])c1ccc(-c2nc(C(=O)N3CCOCC3)n3ccccc23)cc1
9 | < 1 µg/mL | CC1=C(C(=O)Nc2nnc(-c3ccccc3)s2)C(c2nn(C)cc2Cl)N=C(Nc2nc3ccccc3o2)N1 (centres undefined)
10 | < 1 µg/mL | Cc1ccccc1CSc1nc2ncc(Br)cc2[nH]1
11 | < 1 µg/mL | CNc1nc(C#N)c(-c2cccc3ccccc23)o1
12 | < 1 µg/mL | O=C(NC1CCN(c2cc(-c3ccc(Cl)cc3)[nH]n2)C1)c1ccccc1 (centres undefined)
13 | 45.2 µg/mL (≈ 147 µM) | O=C(c1nc(-c2cccnc2)c2ccccn12)N1CCOCC1
14 | > 61 µg/mL | COc1ccc(-n2nc(C3CCN(C(=O)Cc4ccc(F)cc4)CC3)[nH]c2=O)cc1
15 | 39.1 µg/mL (≈ 120 µM) | CN(C)c1cccc(-c2ccnc(N3CCC(C(N)=O)CC3)n2)c1
16 | 23.2 µg/mL (≈ 39.6 µM) | Cc1ccc(-n2ncc(C(=O)NCCN3CCC(Cc4ccccc4)CC3)c2C2CCN(C(=O)OC(C)(C)C)CC2)cc1
17 | 51.1 µg/mL (≈ 109 µM) | COc1cccc(CNc2ccc(S(=O)(=O)Nc3cccc(N4CCNCC4)c3)cc2)c1O
18 | < 1 µg/mL | O=C(Nc1ncc(Cc2ccc(C(F)(F)F)cc2)s1)c1ccc(-c2ccc([N+](=O)[O-])cc2)o1
19 | < 1 µg/mL | COc1ccc(N(C)C(=O)c2cc3c(s2)-c2ccccc2OC3)cc1
20 | > 65 µg/mL | Cc1cc(NS(=O)(=O)c2ccc(C(=O)NCc3ccc(Cl)c(Cl)c3)cc2)no1
21 | > 50 µg/mL | Cc1cnc(N2CCC(C(N)=O)CC2)nc1-c1cccc(N(C)C)c1
22 | < 1 µg/mL | COc1cccc(-c2noc(Nc3ccc4c(c3)OCCO4)n2)c1
23 | 7.16 µg/mL (≈ 19.4 µM) | COc1cc(NC(=O)c2nc3ccccc3n(C)c2=O)cc(OC)c1OC

Row | solubility kinetic | Structure (SMILES)
24 | 26.4 µg/mL (≈ 79.3 µM) | Cc1cccc(-n2cnc3cc(C(=O)N4CCCC(C)C4)ccc32)c1 (centres undefined)
25 | > 100 µg/mL | C=CCc1ccc(O)c(-c2ccc(O)c(CC=C)c2)c1
26 | < 1 µg/mL | CC(C)(C)c1ccc(-n2cnc3cc(C(=O)N4CCCCC4)ccc32)cc1
27 | 27.3 µg/mL | CCc1cc(Cl)c(OC)c(C(=O)NC[C@@H]2CCCN2CC)c1O.Cl
28 | 43.2 µg/mL (≈ 106 µM) | CCOC(=O)C1CCN(C(=O)C2(NC(=O)Nc3ccccc3Cl)CCC2)CC1
29 | < 1 µg/mL | CC(C)NC(=O)C1CCN(C(=O)c2cc3sccc3n2Cc2ccc(Cl)cc2)CC1
30 | < 1 µg/mL | CCOC(=O)c1ccc(N2C(=O)c3n[nH]c(-c4cccs4)c3C2c2ccc(Cl)cc2Cl)cc1 (centres undefined)
31 | < 1 µg/mL | COc1ccccc1C(=O)N1CCc2cc(-c3nc(NC(=O)Cc4ccc5c(c4)OCO5)sc3C)ccc21
32 | < 1 µg/mL | CC(C)(C)c1ccc(C(=O)Nc2ccc3c(c2)CCCN3C(=O)c2cccs2)cc1
33 | > 63 µg/mL | Cn1c(CN2CCCCC2)nc2cc(NC(=O)c3cccc(Br)c3)ccc21
34 | 44 µg/mL (≈ 105 µM) | Cc1cnc(CNc2nc(-c3cccc(NS(C)(=O)=O)c3)nc3ccccc23)cn1
35 | 32.9 µg/mL (≈ 66.9 µM) | CC(C)C(=O)N1CCc2ccc(OCc3nc(C(=O)N4CCCC4)co3)cc2C1c1cccc(F)c1 (centres undefined)
36 | < 1 µg/mL | O=C1CCCC2=C1C(c1ccccc1I)N=C(Nc1nc3ccccc3o1)N2 (centres undefined)
37 | < 1 µg/mL | O=[S+]([O-])(Nc1nccs1)c1ccc(NCc2ccc(Cl)c(Cl)c2)cc1
38 | 1.8 µg/mL (≈ 4.56 µM) | CN(C)C(=O)C1CCN(c2nc(-c3ccc(Br)cc3)cs2)CC1
39 | > 45 µg/mL | Clc1cccc(COc2cncc(N3CCNCC3)n2)c1
40 | < 1 µg/mL | O=C(Nc1ccc(Nc2ccncc2)cc1)c1ccc(Nc2ccnc3ccc([N+](=O)[O-])cc23)cc1[N+](=O)[O-]
41 | 14.7 µg/mL (≈ 30.7 µM) | CCOC(=O)N1CCN(Cc2nc3cc(NC(=O)c4ccc(OC)cc4)ccc3n2C(C)C)CC1
42 | 39.5 µg/mL (≈ 80.2 µM) | Cc1cc(F)ccc1-c1nc(NCCN=C(N)NC#N)nc2c1ccc(=O)n2-c1c(F)cccc1F
43 | < 1 µg/mL | N#Cc1ccc(C(=O)Nc2ccc(Cl)c(-c3nc4cc(Cl)ccc4o3)c2)c(F)c1
44 | < 1 µg/mL | COC(=N)c1nc2ccc3ncnc(Nc4ccc(F)cc4Br)c3c2s1
45 | < 1 µg/mL | O=C(c1ccncc1)N1CCC2(CCCN(C(c3ccccc3)c3ccccc3)C2)CC1
46 | < 1 µg/mL | COc1ccc(C(=O)Nc2nc(-c3ccccc3)cs2)c(NS(=O)(=O)c2ccc(C)cc2)c1

Row | solubility kinetic | Structure (SMILES)
47 | < 1 µg/mL | COc1cc(C(=O)NC2CCCc3c2[nH]c2c(Cl)cccc32)cc(OC)c1OC (centres undefined)
48 | < 1 µg/mL | CCc1cccc(CC)c1-n1c(C=C(C)C)c(C(=O)N2CCNCC2)cc(-c2nc(-c3ccc(C(F)(F)F)cc3)cs2)c1=O
49 | < 1 µg/mL | CC(=O)c1c(C)[nH]c(C(=O)Nc2cccc(S(=O)(=O)Nc3ccc(Br)cc3)c2)c1C
50 | > 45 µg/mL | Cc1noc(C)c1-c1csc(N2CCC(C(N)=O)CC2)n1
51 | < 1 µg/mL | c1cc(-c2cc(-c3ccncc3)c3cncn3c2)c2[nH]ccc2c1
52 | > 68 µg/mL | COCCOc1cnc2ccn([C@H](C)c3nnc4c(F)cc(-c5cnn(C)c5)cn34)c(=O)c2c1
53 | > 69 µg/mL | CC#CC(=O)N1CCC[C@H]1c1nc(-c2ccc(C(=O)Nc3ccccn3)cc2)c2c(N)nccn12
54 | > 67 µg/mL | CCCc1nnc(NC(=O)c2nc(S(=O)(=O)Cc3ccc(C)cc3)ncc2Cl)s1
55 | 3.09 µg/mL (≈ 7.55 µM) | Cc1ccc(CCNC(=O)C2CCCN(C(=O)c3cc4sccc4n3C)C2)cc1 (centres undefined)
56 | < 1 µg/mL | CCOc1cccc(C(=O)Nc2nc3c(s2)CC(C(C)(C)C)CC3)c1 (centres undefined)
57 | 43.2 µg/mL (≈ 95.7 µM) | Nc1ccc(S(=O)(=O)Nc2cnccc2C(=O)Nc2nc(-c3ccccc3)cs2)cc1
58 | < 1 µg/mL | O=C(Nc1ccc(S(=O)(=O)Nc2ncc(-c3ccccc3)s2)cc1)c1ccc2ccccc2c1
59 | 30.2 µg/mL (≈ 63.9 µM) | O=C(Nc1nc(-c2ccc(F)cc2)cs1)c1ccncc1NS(=O)(=O)c1ccc(F)cc1
60 | < 1 µg/mL | Fc1cc(Nc2nc(-c3ccncc3)nc3ccccc23)ccc1N1CCCCC1
61 | < 1 µg/mL | COc1ccc(OCc2ccc(-c3nc(C#N)c(NC(C)c4ccccc4)o3)o2)cc1 (centres undefined)
62 | 23.9 µg/mL (≈ 50.6 µM) | O=[S+]([O-])(Nc1ccc(C2CCNCC2)cc1)c1ccc(NCc2ccc(Cl)cc2O)cc1
63 | 18.7 µg/mL (≈ 51 µM) | CC(=O)Nc1ccc(OCc2cn(CC(=O)c3ccc(O)cc3)nn2)cc1
64 | 1.2 µg/mL (≈ 3.48 µM) | Cn1nnnc1Sc1ncnc2scc(-c3ccccc3F)c12
65 | < 1 µg/mL | CCCCC1CCC(C(=O)Nc2ccc(S(=O)(=O)Nc3nccs3)cc2)CC1 (centres undefined)
66 | > 39 µg/mL | O=C(CCCCCCC(=O)Nc1ccccc1)NO
67 | 16.8 µg/mL (≈ 43 µM) | CC(C)Oc1ccc(-c2ccc(=O)n(CC(=O)NCCc3ccccc3)n2)cc1

Row | Structure (SMILES) | solubility kinetic
68 | COC(=O)c1ccc(O)c2ncc(N3CCN(C)CC3)cc12 | > 30 µg/mL
69 | COC1C(OC(=O)c2ccc(C)[nH]2)C(O)C(Oc2ccc3c(O)c(NC(=O)c4ccc(O)c(CC=C(C)C)c4)c(=O)oc3c2Cl)OC1(C)C (centres undefined) | > 100 µg/mL
